Laboratory results reported in paper PMC6386767, “Characterization of recombinant fructose-1,6-bisphosphatase gene mutations: evidence of inhibition/activation of FBPase protein by gene mutation” (Bioscience Reports, 2019).
Numbering of substitutions follows the chain as printed. Each block holds one compound with its values, some of them ahead of it.

Experiments:
pig kidney FBPase M248D = target: T1, pig kidney FBPase M248D (Sus scrofa, UniProt P00636, M249D); experiment: Malachite Green kinetic assay, M248D mutant; format: biochemical; details: for IC50: FBP substrate 10 to 50 µM
T1 construct: His6 (C); made in house; host or cells: Escherichia coli BL21 (DE3)
T1 sequence (P00636 1-338 M249D): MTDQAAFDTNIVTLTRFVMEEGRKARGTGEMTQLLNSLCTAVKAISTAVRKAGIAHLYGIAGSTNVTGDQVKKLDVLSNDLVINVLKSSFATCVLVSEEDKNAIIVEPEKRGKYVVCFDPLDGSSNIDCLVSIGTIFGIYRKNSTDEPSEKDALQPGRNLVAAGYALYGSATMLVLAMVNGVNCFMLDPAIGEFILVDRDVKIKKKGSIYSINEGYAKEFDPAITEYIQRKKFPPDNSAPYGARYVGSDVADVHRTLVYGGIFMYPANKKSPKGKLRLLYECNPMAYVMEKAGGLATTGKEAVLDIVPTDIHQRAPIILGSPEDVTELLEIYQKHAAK
Description: (§1) For the kinetic assay, a standard curve was obtained from an ammonium molybdate Malachite Green inorganic phosphate assay (OD660 nm). The purified FBPase protein was dialyzed ×3 in 50 mM Tris buffer at pH 7.5 at 4°C. For enzyme concentration, absorbency values were recorded for all five mutant proteins using spectrophotometer readings at OD280 nm. To quantitate enzyme concentration, the enzymes were calculated based on the quantity of micrograms per microliter (µg/µl) present. Final concentration of WT and mutant enzymes was between 2.5 and 5.0 µg/µl. Using a colorimetric assay as described below, specific activity (SA) was determined. At last, all kinetic and binding assays described below were performed in 50 mM Tris pH 7.5.
(§2) Kinetic assays were performed for WT and mutant enzymes to identify functional differences between the WT enzyme and the mutants. […] Readings recorded at OD660 nm for each enzyme were applied to the standard curve equation. Micromoles of inorganic phosphate were calculated to determine the SA of mutant enzymes.
(§3) For each clone, the kinetic assay was performed in duplicates of triplicates. Malachite Geen was used to detect inorganic phosphate. Two separate clones were processed independently of the same mutant. All kinetic data were fit to symmetric sigmoidal curve using Origin software based on methods previously described [[27–29]]. More specifically, for kinetic parameters established via curve fitting (shown in Tables 1–3; and in Figure 5A,B), the equation y = d + (a − d)/1 + (x/c)^b was used where ‘x’ is represented by apparent Michelis constant (Km) when y = Vmax. […] P-values were significant at <0.001 and represent a comparison with the WT enzyme.

pig kidney FBPase Y113A = target: T2, pig kidney FBPase Y113A (Sus scrofa, UniProt P00636, Y114A); experiment: Differential scanning fluorimetry, Y113A mutant; format: binding; details: enzyme Y113A
T2 construct: His6 (C); made in house; host or cells: Escherichia coli BL21 (DE3)
T2 sequence (P00636 1-338 Y114A): T1 sequence (P00636 1-338 M249D) with Y114A, D249M
Description: (§4) Differential scanning fluorimetry (DSF) assays were designed and implemented to run on WT and each mutant for the purpose of determining relative stabilities by melting point, and to detect structural changes in the enzymes upon ligand binding. Thermal shift assays were performed with a Light Cycler 96 System Real-Time PCR machine (Roche) using Sypro-Orange dye (Invitrogen) and thermal ramping (0.25°C per min between 20 and 85°C). […] Data were processed using the Boltzmann equation to generate sigmoidal denaturation curves, and average Tm/ΔTm values were calculated as previously described using GraphPad Prism software package.

pig kidney FBPase WT = target: T3, pig kidney FBPase WT (Sus scrofa, UniProt P00636); experiment: Malachite Green kinetic assay, WT enzyme; format: biochemical; details: for IC50: FBP substrate 10 to 50 µM
T3 construct: His6 (C); made in house; host or cells: Escherichia coli BL21 (DE3)
T3 sequence (P00636 1-338): T1 sequence (P00636 1-338 M249D) with D249M
Description: as §1, §2, §3

pig kidney FBPase Y164A = target: T4, pig kidney FBPase Y164A (Sus scrofa, UniProt P00636, Y165A); experiment: Differential scanning fluorimetry, Y164A mutant; format: binding; details: enzyme Y164A
T4 construct: His6 (C); made in house; host or cells: Escherichia coli BL21 (DE3)
T4 sequence (P00636 1-338 Y165A): T1 sequence (P00636 1-338 M249D) with Y165A, D249M
Description: as §4

pig kidney FBPase M177A [1] = target: T5, pig kidney FBPase M177A (Sus scrofa, UniProt P00636, M178A); experiment: Malachite Green kinetic assay, M177A mutant; format: biochemical; details: for IC50: FBP substrate 10 to 50 µM
T5 construct: His6 (C); made in house; host or cells: Escherichia coli BL21 (DE3)
T5 sequence (P00636 1-338 M178A): T1 sequence (P00636 1-338 M249D) with M178A, D249M
Description: as §1, §2, §3

pig kidney FBPase M177A [2] = target: T5, pig kidney FBPase M177A; experiment: Differential scanning fluorimetry, M177A mutant; format: binding; details: enzyme M177A
Description: as §4

- AMP Hill coefficient (pig kidney FBPase M248D; enzyme M248D): 2.5 (± 0.2)
- IC50 (pig kidney FBPase M248D; enzyme M248D): 7.2 µM
- reduction in melting temperature, presence of AMP vs absence of ligand (pig kidney FBPase Y113A): 5–9 °
- melting point of enzyme with AMP (100 µM) (pig kidney FBPase Y113A; AMP 100 µM): 45.0 (± 1.25) °C
- AMP Hill coefficient (pig kidney FBPase WT): 2.2 (± 0.1)
- IC50 (pig kidney FBPase WT): 7.5 µM
- melting point of enzyme with AMP (100 µM) (pig kidney FBPase Y164A; AMP 100 µM): 55.0 (± 2.25) °C
- AMP Hill coefficient (pig kidney FBPase M177A [1]; enzyme M177A_1): 2.6 (± 0.2)
- IC50 (pig kidney FBPase M177A [1]; enzyme M177A_1): 3.5 µM
- AMP Hill coefficient (pig kidney FBPase M177A [1]; enzyme M177A_2 (second clone)): 2.8 (± 0.1)
- IC50 (pig kidney FBPase M177A [1]; enzyme M177A_2): 3.9 µM
- melting point of enzyme with AMP (100 µM) (pig kidney FBPase M177A [2]; AMP 100 µM): 54.1 (± 1.25) °C
SMILES: Nc1ncnc2c1ncn2[C@@H]1O[C@H](COP(=O)(O)O)[C@@H](O)[C@H]1O [AMP]

- Ki (pig kidney FBPase M248D; enzyme M248D): 1.5 µM
- IC50 (pig kidney FBPase M248D; enzyme M248D): 10.5 µM
- Ki (pig kidney FBPase WT): 0.25 µM
- IC50 (pig kidney FBPase WT): 1.5 µM
- Ki (pig kidney FBPase M177A [1]; enzyme M177A): 0.17 µM
- IC50 (pig kidney FBPase M177A [1]; enzyme M177A_1): 0.75 µM
- IC50 (pig kidney FBPase M177A [1]; enzyme M177A_2): 0.62 µM
SMILES: O=P(O)(O)OC[C@H]1O[C@@](CO)(OP(=O)(O)O)[C@@H](O)[C@@H]1O [F2,6-BP, fructose-2,6-bisphosphate]

- decrease in Ka for magnesium binding (pig kidney FBPase M248D; enzyme M248D vs WT): 6.25
- Ka (pig kidney FBPase M248D; enzyme M248D, association (binding) constant from saturation curve): 0.08 (± 0.02) mM
- Hill coefficient (pig kidney FBPase M248D; enzyme M248D, for magnesium): 2.20 (± 0.17)
- melting point of enzyme with Mg^2+ ([…]) (pig kidney FBPase Y113A; Mg^2+ […]): 52.0 (± 1.50) °C
- Ka (pig kidney FBPase WT; association (binding) constant from saturation curve): 0.50 (± 0.18) mM
- Hill coefficient (pig kidney FBPase WT; for magnesium): 2.10 (± 0.15)
- melting point of enzyme with Mg^2+ ([…]) (pig kidney FBPase Y164A; Mg^2+ […]): 55.2 (± 1.75) °C
- Ka (pig kidney FBPase M177A [1]; enzyme M177A, association (binding) constant from saturation curve): 0.49 (± 0.18) mM
- Hill coefficient (pig kidney FBPase M177A [1]; enzyme M177A, for magnesium): 2.05 (± 0.12)
- melting point of enzyme with Mg^2+ ([…]) (pig kidney FBPase M177A [2]; Mg^2+ […]): 55.8 (± 1.75) °C
SMILES: [Mg+2] [Mg^2+, magnesium]
